Like-named read-outs stand apart in the source and are kept apart here.
What was measured:
HCT116 cell line = assay: MTT assay, HCT116; format: cell-based; conditions: average of three determinations
Protocol: (§1) Compounds were tested at six concentrations (0.001–100 μM).
(§2) The cells were seeded into a 96-well plate and allowed to attach overnight, after which various concentrations of test compounds or DMSO were added to the culture medium and the cells were incubated for 48 h at 37 °C in a 5% CO2 humidified incubator. Then, 20 μL of 0.5% the fresh MTT solution was added to each well. After incubation for another 4 h, the culture medium was removed and 150 μL of DMSO was added to dissolve the formazan crystals. The absorbance at 540 nm was measured using a microplate reader. The results, expressed as IC50 values, were the average of three determinations and were calculated using nonlinear regression analysis.

MCF7 cell line = assay: MTT assay, MCF7; format: cell-based; conditions: average of three determinations
Protocol: as §1, §2

A549 cell line = assay: MTT assay, A549; format: cell-based; conditions: average of three determinations
Protocol: as §1, §2

MDM2 = MDM2 (Homo sapiens, UniProt Q00987); assay: fluorescence polarization assay, MDM2 binding
Protocol: (§3) The MDM2 and MDMX binding evaluation for the target compounds was carried out using the fluorescence polarization assay.
(§4) Dose-dependent MDM2 and MDMX binding evaluations were carried out using the fluorescence polarization assay.
(§5) A total of 30 nM preincubated (30 min) MDM2 (or MDMX) and 10 nM PMDM-F peptide in reaction buffer (100 μL, potassium phosphate, 100 mM; bovine gamma globulin, 100 mg/mL; sodium azide, 0.02%) were added into a 96-well plate containing the tested compounds at pH 7.5.

MDMX = target: T1, MDMX (Homo sapiens, UniProt O15151); assay: fluorescence polarization assay, MDMX binding
T1 sequence (O15151 1-490): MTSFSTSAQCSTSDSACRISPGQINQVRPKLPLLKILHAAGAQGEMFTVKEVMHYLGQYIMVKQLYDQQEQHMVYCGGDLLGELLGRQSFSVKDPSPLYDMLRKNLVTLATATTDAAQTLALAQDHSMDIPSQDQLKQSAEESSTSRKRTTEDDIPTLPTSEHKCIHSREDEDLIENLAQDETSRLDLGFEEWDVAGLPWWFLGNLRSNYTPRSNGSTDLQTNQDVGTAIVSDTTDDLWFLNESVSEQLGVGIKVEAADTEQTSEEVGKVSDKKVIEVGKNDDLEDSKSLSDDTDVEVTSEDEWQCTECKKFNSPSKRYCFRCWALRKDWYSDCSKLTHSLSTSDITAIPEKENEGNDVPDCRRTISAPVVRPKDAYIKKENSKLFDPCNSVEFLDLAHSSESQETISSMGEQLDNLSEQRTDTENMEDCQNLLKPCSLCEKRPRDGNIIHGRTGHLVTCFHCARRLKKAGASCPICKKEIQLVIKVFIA
Protocol: as §3, §4, §5

[1] = read-out: Ki (μM) ± SD MDM2, fluorescence polarization, PMDM-F peptide, pH 7.5
[2] = read-out: Ki (μM) ± SD MDMX, fluorescence polarization, PMDM-F peptide, pH 7.5

Chain of MDM2 (Q00987 whole entry): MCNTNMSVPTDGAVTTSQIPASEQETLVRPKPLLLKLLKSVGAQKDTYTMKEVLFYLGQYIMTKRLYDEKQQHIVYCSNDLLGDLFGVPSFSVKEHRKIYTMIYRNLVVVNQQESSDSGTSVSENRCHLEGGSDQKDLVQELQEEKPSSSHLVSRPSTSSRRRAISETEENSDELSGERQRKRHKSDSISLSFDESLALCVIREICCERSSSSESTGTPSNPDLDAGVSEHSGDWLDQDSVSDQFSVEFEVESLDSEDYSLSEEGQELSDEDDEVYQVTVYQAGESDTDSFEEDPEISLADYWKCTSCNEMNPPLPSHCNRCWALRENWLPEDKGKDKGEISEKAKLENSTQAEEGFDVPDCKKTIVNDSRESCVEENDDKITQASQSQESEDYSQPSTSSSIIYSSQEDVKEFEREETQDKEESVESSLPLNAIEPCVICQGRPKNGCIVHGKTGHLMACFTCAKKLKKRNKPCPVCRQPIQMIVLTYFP

IC50 (HCT116 cell line; Homo sapiens, HCT-116, 48 h) | IC50 (MCF7 cell line; Homo sapiens, MCF7, 48 h) | IC50 (A549 cell line; Homo sapiens, A549, 48 h) | Ki (MDM2) | Ki (MDMX) | melting point | Ki (MDM2; [1]) | Ki (MDMX; [2]) | IC50 (HCT116 cell line; 48 h) | IC50 (MCF7 cell line; 48 h) | IC50 (A549 cell line; 48 h) | Compound
10.7 ± 1.47 µM | 25.5 ± 3.61 µM | 18.7 ± 2.49 µM | 0.92 ± 0.11 µM | 17.4 ± 2.78 µM | – | – | – | – | – | – | O=C1/C(=C/c2ccccc2Cl)c2ccccc2N1S(=O)(=O)c1cccc(Cl)c1 [Compound A6, (E)-3-(2-chlorobenzylidene)-1-((3-chlorophenyl)sulfonyl)indolin-2-one]
15.4 ± 4.61 µM | 24.7 ± 2.53 µM | 17.8 ± 2.19 µM | 0.19 ± 0.05 µM | 20.8 ± 2.01 µM | 125.1 to 126.3 °C | – | – | – | – | – | O=C1/C(=C/c2cccc(Cl)c2)c2ccccc2N1S(=O)(=O)c1ccccc1Cl [Compound A12, (E)-3-(3-chlorobenzylidene)-1-((2-chlorophenyl)sulfonyl)indolin-2-one]
15.2 ± 3.14 µM | 20.2 ± 2.86 µM | 20.3 ± 2.49 µM | – | – | 137.5 to 139.6 °C | 0.082 ± 0.021 µM | 18.2 ± 1.39 µM | – | – | – | O=C1/C(=C/c2cccc(Cl)c2)c2ccccc2N1S(=O)(=O)c1ccc(Cl)cc1 [Compound A14, (E)-3-(3-chlorobenzylidene)-1-((4-chlorophenyl)sulfonyl)indolin-2-one]
– | – | – | – | – | – | 0.34 ± 0.12 µM | 24.4 ± 2.57 µM | 23.8 ± 2.69 µM | 31.1 ± 3.55 µM | 29.1 ± 3.31 µM | O=C1/C(=C/c2cccc(Cl)c2)c2ccccc2N1S(=O)(=O)c1ccccc1Br [Compound A15]
– | – | – | – | – | – | 0.079 ± 0.005 µM | 16.2 ± 1.94 µM | 21.7 ± 2.59 µM | 26.5 ± 3.4 µM | 25.4 ± 3.62 µM | O=C1/C(=C/c2cccc(Cl)c2)c2ccccc2N1S(=O)(=O)c1cccc(Br)c1 [Compound A16]
– | – | – | – | – | – | 0.49 ± 0.15 µM | 43.2 ± 4.95 µM | 25.5 ± 3.26 µM | 37.7 ± 3.65 µM | 34.2 ± 3.39 µM | O=C1/C(=C/c2cccc(Cl)c2)c2ccccc2N1S(=O)(=O)c1ccc(Br)cc1 [Compound A17]
17.9 ± 2.11 µM | 24.7 ± 3.63 µM | 22.6 ± 2.93 µM | 0.17 ± 0.03 µM | 17.7 ± 2.16 µM | – | – | – | – | – | – | O=C1/C(=C/c2cccc(Cl)c2)c2ccccc2N1S(=O)(=O)c1ccccc1F [Compound A18, (E)-3-(3-chlorobenzylidene)-1-((2-fluorophenyl)sulfonyl)indolin-2-one]
10.2 ± 1.37 µM | 21 ± 2.58 µM | 16.3 ± 1.82 µM | 0.076 ± 0.005 µM | 16.9 ± 1.74 µM | – | – | – | – | – | – | O=C1/C(=C/c2cccc(Cl)c2)c2ccccc2N1S(=O)(=O)c1cccc(F)c1 [Compound A19, (E)-3-(3-chlorobenzylidene)-1-((3-fluorophenyl)sulfonyl)indolin-2-one]
16.3 ± 2.73 µM | 27.2 ± 2.83 µM | 22.2 ± 2.13 µM | 0.23 ± 0.02 µM | 29.2 ± 3.51 µM | 141.7 to 143.1 °C | – | – | – | – | – | O=C1/C(=C/c2cccc(Cl)c2)c2ccccc2N1S(=O)(=O)c1ccc(F)cc1 [Compound A20, (E)-3-(3-chlorobenzylidene)-1-((4-fluorophenyl)sulfonyl)indolin-2-one]
8.91 ± 1.35 µM | 15.7 ± 2.04 µM | 13.5 ± 2.73 µM | 0.092 ± 0.007 µM | 19.3 ± 2.69 µM | – | – | – | – | – | – | O=C1/C(=C/c2cccc(Cl)c2)c2ccccc2N1S(=O)(=O)c1cccc(C(F)(F)F)c1 [Compound A21, (E)-3-(3-chlorobenzylidene)-1-((3-(trifluoromethyl)phenyl)sulfonyl)indolin-2-one]
– | – | – | – | – | 134.1 to 135.6 °C | 4.68 ± 0.39 µM | > 50 µM | – | – | – | Cc1ccc(S(=O)(=O)N2C(=O)/C(=C/c3ccc(Cl)cc3)c3ccccc32)cc1 [Compound A26, (E)-3-(4-chlorobenzylidene)-1-tosylindolin-2-one]
17.5 ± 1.53 µM | 27.6 ± 3.81 µM | 20.4 ± 1.98 µM | – | – | 184.8 to 185.6 °C | 0.31 ± 0.03 µM | 17.3 ± 1.91 µM | – | – | – | O=C1/C(=C/c2ccc(Cl)cc2)c2ccccc2N1S(=O)(=O)c1cccc(Cl)c1 [Compound A27, (E)-3-(4-chlorobenzylidene)-1-((3-chlorophenyl)sulfonyl)indolin-2-one]
17 ± 2.37 µM | 27.4 ± 3.37 µM | 26.4 ± 4.05 µM | – | – | 177.8 to 178.7 °C | 0.28 ± 0.04 µM | 32.2 ± 3.24 µM | – | – | – | O=C1/C(=C/c2cccc(Cl)c2)c2cc(Cl)ccc2N1S(=O)(=O)c1cccc(Cl)c1 [Compound A29, (E)-5-chloro-3-(3-chlorobenzylidene)-1-((3-chlorophenyl)sulfonyl)indolin-2-one]
– | – | – | – | – | 132.6 to 133.8 °C | 1.39 ± 0.15 µM | 29 ± 2.18 µM | – | – | – | O=C1/C(=C/c2cccc(Cl)c2)c2ccc(Cl)cc2N1S(=O)(=O)c1cccc(Cl)c1 [Compound A30, (E)-6-chloro-3-(3-chlorobenzylidene)-1-((3-chlorophenyl)sulfonyl)indolin-2-one]
– | – | – | 10.2 ± 2.01 µM | > 50 µM | 214.5 to 216.2 °C | – | – | – | – | – | O=C1/C(=C/c2ccccc2Cl)c2ccccc2N1C(=O)c1ccccc1Cl [Compound B1, (E)-1-(2-chlorobenzoyl)-3-(2-chlorobenzylidene)indolin-2-one]
– | – | – | 8.43 ± 1.58 µM | > 50 µM | 219 to 220.8 °C | – | – | – | – | – | O=C1/C(=C/c2ccccc2Cl)c2ccccc2N1C(=O)c1cccc(Cl)c1 [Compound B2, (E)-1-(3-chlorobenzoyl)-3-(2-chlorobenzylidene)indolin-2-one]
– | – | – | 7.86 ± 1.34 µM | > 50 µM | 221.3 to 222.7 °C | – | – | – | – | – | O=C1/C(=C/c2ccccc2Cl)c2ccccc2N1C(=O)c1ccc(Cl)cc1 [Compound B3, (E)-1-(4-chlorobenzoyl)-3-(2-chlorobenzylidene)indolin-2-one]
– | – | – | 16.4 ± 2.77 µM | > 50 µM | 111.2 to 112.8 °C | – | – | – | – | – | Cc1ccccc1C(=O)N1C(=O)/C(=C/c2ccccc2Cl)c2ccccc21 [Compound B4, (E)-3-(2-chlorobenzylidene)-1-(2-methylbenzoyl)indolin-2-one]
– | – | – | 20.2 ± 3.05 µM | > 50 µM | 128.2 to 129.7 °C | – | – | – | – | – | Cc1cccc(C(=O)N2C(=O)/C(=C/c3ccccc3Cl)c3ccccc32)c1 [Compound B5, (E)-3-(2-chlorobenzylidene)-1-(3-methylbenzoyl)indolin-2-one]
– | – | – | 22.4 ± 3.64 µM | > 50 µM | 145.3 to 146.9 °C | – | – | – | – | – | Cc1ccc(C(=O)N2C(=O)/C(=C/c3ccccc3Cl)c3ccccc32)cc1 [Compound B6, (E)-3-(2-chlorobenzylidene)-1-(4-methylbenzoyl)indolin-2-one]
– | – | – | 14.9 ± 2.37 µM | > 50 µM | 108.3 to 109.7 °C | – | – | – | – | – | O=C1/C(=C/c2cccc(Cl)c2)c2ccccc2N1C(=O)c1ccccc1Cl [Compound B7, (E)-1-(2-chlorobenzoyl)-3-(3-chlorobenzylidene)indolin-2-one]
– | – | – | 8.63 ± 1.55 µM | > 50 µM | 112.4 to 114 °C | – | – | – | – | – | O=C1/C(=C/c2cccc(Cl)c2)c2ccccc2N1C(=O)c1cccc(Cl)c1 [Compound B8, (E)-1-(3-chlorobenzoyl)-3-(3-chlorobenzylidene)indolin-2-one]
– | – | – | 15.9 ± 1.96 µM | > 50 µM | 103.5 to 104.8 °C | – | – | – | – | – | O=C1/C(=C/c2cccc(Cl)c2)c2ccccc2N1C(=O)c1ccc(Cl)cc1 [Compound B9, (E)-1-(4-chlorobenzoyl)-3-(3-chlorobenzylidene)indolin-2-one]
– | – | – | 12.5 ± 1.04 µM | > 50 µM | 141.3 to 142.3 °C | – | – | – | – | – | O=C1/C(=C/c2ccc(Cl)cc2)c2ccccc2N1C(=O)c1cccc(Cl)c1 [Compound B10, (E)-1-(3-chlorobenzoyl)-3-(4-chlorobenzylidene)indolin-2-one]

Compound | IC50 (HCT116 cell line; Homo sapiens, HCT-116, 48 h) | IC50 (MCF7 cell line; Homo sapiens, MCF7, 48 h) | IC50 (A549 cell line; Homo sapiens, A549, 48 h) | Ki (MDM2) | Ki (MDMX) | melting point | Ki (MDM2; [1]) | Ki (MDMX; [2]) | IC50 (HCT116 cell line; 48 h) | IC50 (MCF7 cell line; 48 h) | IC50 (A549 cell line; 48 h)
COc1ccc(C2=N[C@@H](c3ccc(Cl)cc3)[C@@H](c3ccc(Cl)cc3)N2C(=O)N2CCNC(=O)C2)c(OC(C)C)c1 [Nutlin-3a, reference compound] | – | – | – | – | – | – | – | – | 18.1 ± 2.17 µM | 32.2 ± 1.49 µM | 21.7 ± 2.04 µM

Source: publication PMC9230548, “Synthesis and Biological Evaluation of Novel Synthetic Indolone Derivatives as Anti-Tumor Agents Targeting p53-MDM2 and p53-MDMX” (Molecules, 2022)
